# According to patent US9163030B2 (priority 2012, dated 2015):
# Where two headings read alike, the source gives them in different places.
# Tests used:
# MOR [1] = target: T1, MOR (Homo sapiens, UniProt P35372); assay: Opioid binding assay, displacement of [3H]DAMGO, hMOR-CHO cell membranes; settings: for selectivity ratio MOR/DOR: ratio of Ki values, CHO membranes
# T1 construct: expressed in transfected cells; host or cells: CHO (hMOR-CHO)
# DOR [2] = target: T2, DOR (Mus musculus, UniProt P32300); assay: [35S]GTP-γ-S binding assay, NG108-15 cells; format: biochemical; settings: for agonist activity DOR EC50: stimulation of [35S]GTP-γ-S binding, no stim = no stimulation; for functional activity profile at DOR: in words; for Emax: read-out: agonist activity DOR Emax
# T2 construct: endogenous in cells; host or cells: NG108-15 neuroblastoma x glioma cells
# MOR [3] = target: T1, MOR; assay: [35S]GTP-γ-S binding assay, hMOR-CHO cells; format: biochemical; settings: for agonist activity MOR EC50: stimulation of [35S]GTP-γ-S binding, no stim = no stimulation; for Emax: read-out: agonist activity MOR Emax
# KOR [4] = target: T3, KOR (Homo sapiens, UniProt P41145); assay: biochemical; format: binding
# T3 construct: expressed in transfected cells; host or cells: CHO (hKOR-CHO)
# DOR [5] = target: T4, DOR (Homo sapiens, UniProt P41143); assay: Opioid binding assay, displacement of [3H]DADLE, hDOR-CHO cell membranes; settings: for fold weaker in binding to DOR compared to 14-benzyloxy counterpart: 18a vs 17b, 18d vs 17f
# T4 construct: expressed in transfected cells; host or cells: CHO (hDOR-CHO)
# KOR [6] = target: T3, KOR; assay: [35S]GTP-γ-S binding assay, hKOR-CHO cells; format: biochemical
# mice = assay: 55° C. warm-water tail-withdrawal test; format: in vivo, mouse; settings: for Antinociceptive A50 Values: calculated at time of peak effect
# [7] = normalized to stimulation by standard agonist
# [8] = normalized to stimulation by DAMGO
# [9] = ratio of Ki values, CHO membranes
# [10] = stimulation of [35S]GTP-γ-S binding, no stim = no stimulation
# [11] = shift in EC50 of standard agonist
# T2 sequence (P32300 whole entry): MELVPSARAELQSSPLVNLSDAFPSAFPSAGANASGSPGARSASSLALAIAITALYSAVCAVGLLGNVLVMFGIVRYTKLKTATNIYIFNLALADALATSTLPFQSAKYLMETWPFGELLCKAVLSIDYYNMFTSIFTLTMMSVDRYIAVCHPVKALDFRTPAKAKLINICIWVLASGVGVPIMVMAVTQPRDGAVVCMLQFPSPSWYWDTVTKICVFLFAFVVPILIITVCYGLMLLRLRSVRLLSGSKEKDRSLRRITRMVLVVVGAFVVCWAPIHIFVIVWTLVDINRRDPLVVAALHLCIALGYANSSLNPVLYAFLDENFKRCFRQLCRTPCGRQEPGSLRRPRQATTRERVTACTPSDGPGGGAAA
# T4 sequence (P41143 whole entry): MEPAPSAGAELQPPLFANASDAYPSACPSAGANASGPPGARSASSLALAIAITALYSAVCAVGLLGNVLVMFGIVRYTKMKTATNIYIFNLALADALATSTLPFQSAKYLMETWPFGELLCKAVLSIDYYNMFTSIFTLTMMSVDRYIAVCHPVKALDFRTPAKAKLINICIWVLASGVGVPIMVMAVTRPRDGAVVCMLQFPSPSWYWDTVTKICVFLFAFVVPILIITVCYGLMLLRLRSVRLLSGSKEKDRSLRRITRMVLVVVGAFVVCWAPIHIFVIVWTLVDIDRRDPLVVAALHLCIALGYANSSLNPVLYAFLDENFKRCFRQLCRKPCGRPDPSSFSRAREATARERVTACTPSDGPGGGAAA
# T3 sequence (P41145 whole entry): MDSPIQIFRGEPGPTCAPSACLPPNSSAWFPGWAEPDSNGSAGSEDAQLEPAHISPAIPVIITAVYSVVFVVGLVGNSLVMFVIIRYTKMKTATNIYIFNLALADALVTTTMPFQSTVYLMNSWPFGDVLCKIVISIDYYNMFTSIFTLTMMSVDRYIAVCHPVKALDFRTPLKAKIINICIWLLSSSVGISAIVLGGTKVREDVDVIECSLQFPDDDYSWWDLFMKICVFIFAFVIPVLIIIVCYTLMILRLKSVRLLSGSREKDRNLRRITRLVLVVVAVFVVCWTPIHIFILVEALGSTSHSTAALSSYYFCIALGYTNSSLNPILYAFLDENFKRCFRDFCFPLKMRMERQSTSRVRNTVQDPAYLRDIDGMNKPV
# T1 sequence (P35372 whole entry): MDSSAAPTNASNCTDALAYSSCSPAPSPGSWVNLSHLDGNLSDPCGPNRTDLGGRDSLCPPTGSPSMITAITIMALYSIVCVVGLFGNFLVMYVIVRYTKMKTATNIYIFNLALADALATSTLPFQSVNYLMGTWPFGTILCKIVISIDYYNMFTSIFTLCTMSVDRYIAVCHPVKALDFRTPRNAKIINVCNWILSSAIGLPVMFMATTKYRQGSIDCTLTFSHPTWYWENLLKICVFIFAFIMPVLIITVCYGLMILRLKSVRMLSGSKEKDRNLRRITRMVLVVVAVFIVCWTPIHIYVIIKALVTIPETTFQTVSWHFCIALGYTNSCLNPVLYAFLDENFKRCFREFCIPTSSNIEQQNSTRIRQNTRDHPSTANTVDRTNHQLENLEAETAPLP
Compound,Ki (MOR [1]) [nM],selectivity ratio MOR/DOR (MOR [1]),agonist activity DOR EC50 (DOR [2]),melting point [°C],agonist activity MOR EC50 (MOR [3]),selectivity ratio KOR/DOR (KOR [4]),Ki (KOR [4]; read-out: Ki ± SEM KOR) [nM],Ki (DOR [5]) [nM],EC50 (KOR [6]) [nM],Emax (KOR [6]; [7]) [%],EC50 (MOR [3]) [nM],selectivity ratio KOR/DOR (KOR [4]; [9]),also measured
"COC12Cc3cc(-c4ccc(Cl)cc4)cnc3C3Oc4c(O)ccc5c4C31CCN(CC1CC1)C2C5 (stereo not drawn) [Compound 17a, 5′-(4-Chlorophenyl)-17-(cyclopropylmethyl)-6,7-didehydro-4,5α-epoxy-3-hydroxy-14-methoxypyrido[2′,3′:6,7]morphinan]",41.9 ± 2.8,22,no stim^b,170 to 173,no stim,2.8,5.37 ± 0.48,1.95 ± 0.14,,,,,
"Oc1ccc2c3c1OC1c4ncc(-c5ccc(Cl)cc5)cc4CC4(OCc5ccccc5)C(C2)N(CC2CC2)CCC314 (stereo not drawn) [Compound 17b, 14-(Benzyloxy)-5′-(4-chlorophenyl)-17-(cyclopropylmethyl)-6,7-didehydro-4,5α-epoxy-3-hydroxypyrido[2′,3′:6,7]morphinan]",8.42 ± 0.29,4.4,no stim,130 to 132,no stim,2.8,,1.91 ± 0.08,27 ± 9,15 ± 1,,,Ki (KOR [4]): 5.33 ± 0.27 nM
"Oc1ccc2c3c1OC1c4ncc(-c5ccc(Cl)cc5)cc4CC4(OCC=Cc5ccccc5)C(C2)N(CC2CC2)CCC314 (stereo not drawn) [Compound 17c, 5′-(4-Chlorophenyl)-14-cinnamyloxy-17-(cyclopropylmethyl)-6,7-didehydro-4,5α-epoxy-3-hydroxypyrido[2′,3′:6,7]morphinan]",3.03 ± 0.38,0.81,no stim,138 to 140,no stim,0.89,,3.74 ± 0.32,,,,,Ki (KOR [4]): 3.31 ± 0.3 nM
"CN1CCC23c4c5ccc(O)c4OC2c2ncc(-c4ccc(Cl)cc4)cc2CC3(OCc2ccccc2)C1C5 (stereo not drawn) [Compound 17f, 14-Benzyloxy-5′-(4-chlorophenyl)-6,7-didehydro-4,5α-epoxy-3-hydroxy-17-methylpyrido[2′,3′:6,7]morphinan]",4.69 ± 0.17,2.6,,228 to 232,,,49 ± 6,1.78 ± 0.15,215 ± 54,32 ± 2,301,28,functional activity profile at DOR (DOR [2]): weak to potent partial agonist activity at DOR; Emax (DOR [2]): 52 ± 1%; Emax (MOR [3]; [8]): 119 ± 3%
"CN1CCC23c4c5ccc(O)c4OC2c2ncc(-c4ccc(Cl)cc4)cc2CC3(OCC=Cc2ccccc2)C1C5 (stereo not drawn) [Compound 17g, 5′-(4-Chlorophenyl)-14-cinnamyloxy-6,7-didehydro-4,5α-epoxy-3-hydroxy-17-methylpyrido[2′,3′:6,7]morphinan]",0.41 ± 0.04,0.36,,,,,1.55 ± 0.09,1.14 ± 0.11,,,4.27,1.4,"Antinociceptive A50 Values (mice; icv): 0.23 nmol; antinociceptive effect (mice; icv, in words): full antinociceptive effects; effect of naloxone pretreatment on antinociceptive effect (mice; naloxone 10 mg/kg ip, -10 min, icv test compound): blocked by naloxone pretreatment; functional activity profile at DOR (DOR [2]): weak to potent partial agonist activity at DOR; Emax (DOR [2]): 84%; Emax (MOR [3]; [8]): 130 ± 3%"
"O=C(OC12Cc3cc(-c4ccc(Cl)cc4)cnc3C3Oc4c(O)ccc5c4C31CCN(CC1CC1)C2C5)c1ccccc1 (stereo not drawn) [Compound 18a, 14-Benzoyloxy-5′-(4-chlorophenyl)-17-(cyclopropylmethyl)-6,7-didehydro-4,5α-epoxy-3-hydroxypyrido[2′,3′: 6,7]morphinan]",192 ± 21,2.2,no stim,158 to 162,no stim,1.3,,87 ± 8,,,,,agonist activity KOR EC50 (KOR [6]; [10]): no stim; Ki (KOR [4]): 117 ± 6 nM; fold weaker in binding to DOR compared to 14-benzyloxy counterpart (DOR [5]): 45 fold
"O=C(Cc1ccccc1)OC12Cc3cc(-c4ccc(Cl)cc4)cnc3C3Oc4c(O)ccc5c4C31CCN(CC1CC1)C2C5 (stereo not drawn) [Compound 18b, 5′-(4-Chlorophenyl)-17-(cyclopropylmethyl)-6,7-didehydro-4,5α-epoxy-3-hydroxy-14-(phenylacetoxy)pyrido[2′,3′:6,7]morphinan]",1.04 ± 0.25,0.78,no stim,118 to 120,no stim,,3.1 ± 0.19,1.33 ± 0.1,26 ± 9,34 ± 2,,2.3,
"O=C(CCc1ccccc1)O[C@@]12Cc3cc(-c4ccc(Cl)cc4)cnc3[C@@H]3Oc4c(O)ccc5c4[C@@]31CCN(CC1CC1)[C@@H]2C5 [Compound 18c, 5′-(4-Chlorophenyl)-17-(cyclopropylmethyl)-6,7-didehydro-4,5α-epoxy-3-hydroxy-14-(3-phenylpropionyloxy)pyrido[2′,3′:6,7]morphinan]",,0.62,no stim,,no stim,,12 ± 13,,,,,2.9,"agonist activity KOR Emax (KOR [6]; [7]): 25 ± 1%; antagonist activity KOR Ke (KOR [6]; [11]): 14 ± 2 nM; EC50 (KOR [6]; stimulation of [35S]GTP-γ-S binding, no stim = no stimulation, read-out: agonist activity KOR EC50): 13 ± 4 nM; Ki (MOR [1]; read-out: Ki ± SEM MOR): 2.58 ± 0.12 nM; antagonist activity DOR Ke (DOR [2]; [11]): 1.86 ± 0.21 nM; antagonist activity MOR Ke (MOR [3]; [11]): 13 ± 1.7 nM; Ki (DOR [5]; read-out: Ki ± SEM DOR): 4.13 ± 0.29 nM"
"CN1CCC23c4c5ccc(O)c4OC2c2ncc(-c4ccc(Cl)cc4)cc2CC3(OC(=O)c2ccccc2)C1C5 (stereo not drawn) [Compound 18d, 14-Benzoyloxy-5′-(4-chlorophenyl)-6,7-didehydro-4,5α-epoxy-3-hydroxy-17-methylpyrido[2′,3′:6,7]morphinan]",84 ± 7,4.9,no stim,280 to 284,,,112 ± 4,17 ± 1,,,4620 ± 1440,6.6,agonist activity KOR EC50 (KOR [6]; [10]): no stim; functional activity profile at MOR (MOR [3]; in words): weak MOR agonist potency and partial efficacy; Emax (MOR [3]; [8]): 55 ± 8%; fold weaker in binding to DOR compared to 14-benzyloxy counterpart (DOR [5]): 10 fold
"CN1CCC23c4c5ccc(O)c4OC2c2ncc(-c4ccc(Cl)cc4)cc2CC3(OC(=O)Cc2ccccc2)C1C5 (stereo not drawn) [Compound 18e, 5′-(4-Chlorophenyl)-6,7-didehydro-4,5α-epoxy-3-hydroxy-17-methyl-14-(phenylacetoxy)pyrido[2′,3′:6,7]morphinan]",1.43 ± 0.08,1.5,,194 to 196,,,17 ± 1,0.97 ± 0.04,109 ± 24,36 ± 2,87,18,functional activity profile at DOR (DOR [2]): weak to potent partial agonist activity at DOR; Emax (DOR [2]): 27 ± 3%; agonist activity MOR Emax (MOR [3]; [8]): 122 ± 3%
"CN1CC[C@]23c4c5ccc(O)c4O[C@H]2[C@@H](O)C=C[C@H]3[C@H]1C5 [morphine, reference compound]",,,,,,,,,,,,,Antinociceptive A50 Values (mice; icv): 0.43 nmol
